# ChEMBL document CHEMBL4138122, “Azaphenothiazines - promising phenothiazine derivatives. An insight into nomenclature, synthesis, structure elucidation and biological properties” (Eur J Med Chem, 2017)
# Legend:
# Escherichia coli = assay: Antibacterial activity against Escherichia coli; format: functional; conditions: Escherichia coli
# Enterococcus faecalis = assay: Antibacterial activity against Enterococcus faecalis; format: functional
# Rattus norvegicus = assay: Analgesic activity in Sprague-Dawley rat assessed as reduction in phenylbenzoquinone-induced number of writhes at 20 mg/kg, sc incubated for 60 mins; format: functional; parameters: scale not given: the % may be the effect or the level left
# [1] = Inhibition of LTB4 formation in rat polymorphonuclear leukocytes preincubated for 2 mins followed by A-23187 addition after 4 mins; format: functional, cell-based
# Mus musculus [2] = assay: Analgesic activity in mouse assessed as reduction in phenylquinone-induced number of writhes at 20 mg/kg, ip; format: functional; parameters: scale not given: the % may be the effect or the level left
# Candida albicans = assay: microbe, parasite or virus in culture
# Description: Antimicrobial activity against Candida albicans
# Staphylococcus aureus = assay: Antibacterial activity against Staphylococcus aureus; format: functional; conditions: Staphylococcus aureus; read-out: MIC
# Cholinesterase = Cholinesterase (Equus caballus, UniProt P81908); assay: Inhibition of horse serum BChE
# Cholinesterase, sequence (P81908 whole entry): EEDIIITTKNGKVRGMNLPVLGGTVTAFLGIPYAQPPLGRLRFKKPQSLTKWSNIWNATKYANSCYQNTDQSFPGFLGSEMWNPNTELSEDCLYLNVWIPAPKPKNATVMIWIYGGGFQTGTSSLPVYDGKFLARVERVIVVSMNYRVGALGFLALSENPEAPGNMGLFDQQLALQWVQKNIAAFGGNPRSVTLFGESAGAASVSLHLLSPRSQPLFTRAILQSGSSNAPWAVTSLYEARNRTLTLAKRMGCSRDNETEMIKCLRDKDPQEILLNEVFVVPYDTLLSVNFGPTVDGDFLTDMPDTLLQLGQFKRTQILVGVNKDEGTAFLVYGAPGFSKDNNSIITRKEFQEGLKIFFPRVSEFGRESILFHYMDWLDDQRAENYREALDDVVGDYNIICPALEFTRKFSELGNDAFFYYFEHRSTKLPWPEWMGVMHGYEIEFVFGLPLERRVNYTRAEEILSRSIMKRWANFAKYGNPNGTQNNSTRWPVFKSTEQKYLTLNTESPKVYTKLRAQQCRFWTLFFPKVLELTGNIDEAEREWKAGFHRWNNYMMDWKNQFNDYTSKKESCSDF
# [3] = molecular target: Cholinesterase (Equus caballus) (UniProt P81908); assay: Inhibition of horse serum BChE at 10 uM
# Cholinesterase (Equus caballus), sequence (P81908 whole entry): as above
# Bacillus subtilis = assay: Antibacterial activity against Bacillus subtilis; format: functional; conditions: Bacillus subtilis
# PBMC [4] = assay: Inhibition of LPS-induced TNFalpha profduction in human PBMC at 5 ug/ml; format: functional
# PBMC [5] = assay: Cytotoxicity in human PBMCs assessed as reduction in cel viability at 50 ug/ml; format: cell-based
# Bacillus cereus = assay: Antibacterial activity against Bacillus cereus; format: functional, organism-based
# [6] = Inhibition of lipoxygenase in rat peritoneal cavity resident cells
# [7] = Inhibition of soybean 15-lipoxygenase; parameters: species or system Glycine max
# Lipoxygenase = Lipoxygenase (Glycine max, UniProt Q39829); assay: Inhibition of soybean lipoxygenase using linoleic acid as substrate preincubated for 5 mins followed by substrate addition measuredf after 7 mins by solution A/B solution based assay
# PBMC [8] = assay: Inhibition of PHA-induced cell proliferation of human PBMC at 50 ug/ml incubated for 4 days by MTT method; format: functional; conditions: 96 h
# [9] = Displacement of [3H]-diazepam from benzodiazepine receptor in rat brain membranes after 30 mins; format: cell membranes, Membrane
# Mus musculus [10] = assay: Anti-inflammatory activity in IL1-induced paw inflammation Balb/c mouse model assessed as inhibition of neutrophil migration at 10 mg/kg, po, pretreated for 30 mins followed by IL1 challenge measured after 2 hrs by spectrophotometric method; format: functional
# [11] = molecular target: Intercellular adhesion molecule 1 (Homo sapiens, UniProt P05362); assay: Inhibition of ICAM1 (unknown origin)
# Intercellular adhesion molecule 1, sequence (P05362 whole entry): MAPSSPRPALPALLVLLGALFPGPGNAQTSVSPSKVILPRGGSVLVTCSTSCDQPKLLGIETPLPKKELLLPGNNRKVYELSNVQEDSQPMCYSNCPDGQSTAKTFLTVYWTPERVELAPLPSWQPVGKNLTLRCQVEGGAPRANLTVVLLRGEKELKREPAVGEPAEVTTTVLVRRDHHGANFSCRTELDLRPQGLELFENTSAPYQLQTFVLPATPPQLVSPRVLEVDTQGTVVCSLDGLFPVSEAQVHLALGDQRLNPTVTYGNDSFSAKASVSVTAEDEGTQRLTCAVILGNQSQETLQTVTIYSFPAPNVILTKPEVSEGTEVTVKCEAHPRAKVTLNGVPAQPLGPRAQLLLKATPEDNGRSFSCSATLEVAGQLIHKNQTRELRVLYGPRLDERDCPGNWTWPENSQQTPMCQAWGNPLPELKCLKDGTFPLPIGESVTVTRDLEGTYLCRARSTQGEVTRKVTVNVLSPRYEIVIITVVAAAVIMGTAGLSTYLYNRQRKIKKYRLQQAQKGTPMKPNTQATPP
# Mus musculus [12] = assay: Neuropharmacological activity in iv dosed Charles River Swiss mouse assessed as minimum dose at which reactive signs were observed in half of mouse tested; format: functional
# Mus musculus [13] = assay: Anti-inflammatory activity in mouse IL-1-induced paw inflammation model assessed as inhibition of neutrophil infiltration at 10 mg/kg, po; format: functional; conditions: Mus musculus, po
# UO-31 = assay: Growth inhibition of human UO31 cells at 10 uM; format: functional; conditions: read-out: GI
smiles,measurement,setting,value
C[n+]1cc2c(c3ccccc31)Nc1ccc(Cl)cc1S2.[Cl-],MIC,Escherichia coli,6 µg/mL
same,MIC,Enterococcus faecalis,4 µg/mL
O=C(O)C(=O)O.c1ccc2c(c1)Sc1cnccc1N2CCCN1CCCCC1,Activity,Rattus norvegicus,59 - 86%
CN1c2ccccc2Sc2nccnc21,IC50,[1],1 to 5 µg/mL
CCN(CC)CCSc1nnc2c3c(cnn12)Sc1ccccc1N3,Activity,Mus musculus [2],54 - 65%
Nc1nc(O)c2c(n1)N=c1c(c3c(c4ccccc14)=Nc1ccccc1S3)S2,MIC,Candida albicans,91.2 µg/mL
same,MIC,Staphylococcus aureus,79.4 µg/mL
CSc1ccc2c(c1)Sc1cc3ccccc3nc1N2CCC1CCCCN1C (stereo not drawn),IC50,Cholinesterase,24.4 nM
same,inhibition,[3],99.9%
O=[N+]([O-])c1ccc2c(c1)N=c1c(c3c(c4ccccc14)=Nc1ccccc1S3)O2,MIC,Candida albicans,100 µg/mL
same,MIC,Bacillus subtilis,45.7 µg/mL
C=CCN1c2cnccc2Sc2cccnc21,inhibition at 5 µg/mL,PBMC [4],> 85%
same,Activity,PBMC [5],<= 22%
COc1ccc2c(n1)Sc1c3c(c4ccccc4c1=N2)=Nc1c(N)ncnc1O3,MIC,Bacillus cereus,77.1 µg/mL
same,MIC,Escherichia coli,87.1 to 97.1 µg/mL
O=c1[nH]c2c(c(=O)[nH]1)Nc1ccccc1S2 [PYRIMIDOBENZOTHIAZINE],IC50,[6],5300 nM
CN1CCC2=C(C1)Sc1ccccc1N2CCCN1CCOCC1,Activity,Rattus norvegicus,93%
c1ccc2c(c1)Nc1nnc(N3CCCC3)cc1S2,IC50,[7],> 287000 nM
CN1CCCCC1CCN1c2ccc(Cl)cc2Sc2cc3ccccc3nc21 (stereo not drawn),IC50,Cholinesterase,122 nM
same,inhibition,[3],99.9%
COc1ccc2c(n1)Sc1c3c(c4ccccc4c1=N2)=Nc1cc([N+](=O)[O-])ccc1O3,MIC,Bacillus cereus,87.4 µg/mL
same,MIC,Escherichia coli,87.1 to 97.1 µg/mL
O=C(NCCCl)NCCCN1c2nc3ccccc3cc2Sc2cc3ccccc3nc21,IC50,Cholinesterase,2900 nM
same,inhibition,[3],83.2%
CCN1CCN(c2nc(C)c3c(n2)Sc2ccccc2N3)CC1,IC50,Lipoxygenase,40700 nM
Cc1nc(N2CCN(C)CC2)nc2c1Nc1ccccc1S2,IC50,Lipoxygenase,21200 nM
CCN(CC)CCN1c2cnccc2Sc2cccnc21,inhibition at 50 µg/mL,PBMC [8],60%
same,Activity,PBMC [5],<= 22%
N#Cc1c2c(c[nH]c1=O)Sc1ccc([N+](=O)[O-])cc1N2,IC50,[9],310 to 910 nM
CS(=O)(=O)NC1CCN(Cc2ccc3c(c2)Nc2nccnc2S3)CC1,inhibition in vivo at 10 mg/kg,Mus musculus [10],83.4 to 89.7%
same,IC50,[11],270 to 1400 nM
CC(C)N(CCSC(=O)N1c2cc(C(F)(F)F)ccc2Sc2cccnc21)C(C)C,MED50,Mus musculus [12],0.058 to 1.8 mg/kg
CN1CCCCC1CCN1c2nc3ccccc3cc2Sc2cc3ccccc3nc21 (stereo not drawn),IC50,Cholinesterase,11.8 nM
same,inhibition,[3],99.8%
O=C(O)CC1CC2(CCN(Cc3ccc4c(c3)Nc3nccnc3S4)CC2)C1,IC50,[11],420 to 1000 nM
same,inhibition in vivo at 10 mg/kg,Mus musculus [13],88.8%
CN(C)CCCN1c2cnccc2Sc2cccnc21,inhibition at 50 µg/mL,PBMC [8],> 70%
same,inhibition at 5 µg/mL,PBMC [4],> 85%
same,Activity,PBMC [5],<= 22%
CSc1ccc2c(c1)N(C(=O)SCCN(C(C)C)C(C)C)c1ncccc1S2,MED50,Mus musculus [12],0.058 to 1.8 mg/kg
c1cnc2c(c1)Sc1ccncc1N2CCN1CCOCC1,inhibition at 50 µg/mL,PBMC [8],60%
same,Activity,PBMC [5],<= 22%
CN(C)CCSc1nnc2c3c(cnn12)Sc1ccccc1N3,Activity,Mus musculus [2],54 - 65%
CS(=O)(=O)NCC1CCN(Cc2ccc3c(c2)Nc2nccnc2S3)CC1,inhibition in vivo at 10 mg/kg,Mus musculus [10],77.6%
same,IC50,[11],270 to 1400 nM
Cc1ccc2c(c1)Sc1c[n+](C)c3ccccc3c1N2.[Cl-],MIC,Enterococcus faecalis,11 µg/mL
CN1CCN(Cc2nnc3c4c(cnn23)Sc2ccccc2N4)CC1,Activity,Mus musculus [2],54 - 65%
C[n+]1cc2c(c3ccccc31)Nc1ccccc1S2.[Cl-],MIC,Escherichia coli,7 µg/mL
same,MIC,Enterococcus faecalis,6 µg/mL
N#Cc1c2c(c[nH]c1=O)S(=O)(=O)c1c(Cl)cccc1N2,IC50,[9],310 to 910 nM
c1ccc2c(c1)Nc1nnc(N3CCCCC3)cc1S2,IC50,[7],> 287000 nM
N#Cc1c(O)ncc2c1Nc1cc(Cl)ccc1S2,IC50,[9],310 to 910 nM
COc1ccc2c(c1)Sc1nccnc1N2,IC50,[1],0.05 to 1 µg/mL
CC(C)N(CCSC(=O)N1c2ccccc2Sc2cccnc21)C(C)C,MED50,Mus musculus [12],0.058 to 1.8 mg/kg
C#CCN1c2cnccc2Sc2cccnc21,inhibition at 5 µg/mL,PBMC [4],> 85%
same,Activity,PBMC [5],<= 22%
O=[N+]([O-])c1ccc(N2c3nc4ccccc4cc3Sc3cc4ccccc4nc32)cc1,inhibition of growth at 10 µM,UO-31,57 to 73%
O=C(O)CC1C2CCC1CN(Cc1ccc3c(c1)Nc1nccnc1S3)C2 (stereo not drawn),inhibition in vivo at 10 mg/kg,Mus musculus [13],83.2%
